We go through twelve compounds from patent publication US20260109714A1, “PYRIMIDINE-FUSED RING COMPOUND, AND PREPARATION METHOD THEREFOR AND USE THEREOF” (GENFLEET THERAPEUTICS (SHANGHAI) INC., priority 2022, published 2026).

For orientation: IC50 means the point on the concentration scale where inhibition reaches its midpoint.

One assay concerns AGS p-ERK. In words: Cell assay for p-ERK (HTRF, Advance ERK phospho-T202/Y204 kit). In kind it is cell-based, human. The conditions noted are these: AGS cells (KRAS G12D), 3 hrs with compound, inhibition of p-ERK level. As for the experimental part:
AGS was purchased from ATCC, Article No.: CRL-1739; F12K was purchased from Gibco, Article No.: 21127-022; FBS was purchased from Gibco, Article No.: 10099-141C; the trypsin (containing EDTA) was purchased from Gibco, Article No.: 25200-072; DMSO was purchased from VWRAMRESCO, Article No.: 0231-500ML; the 96-well cell culture plate was purchased from Corning, Article No.: 3599; the white-bottom opaque 96-well plate was purchased from Cisbio, Article No.: 66PL96025; Advance ERK phospho-T202/Y204 kit was purchased from Cisbio, Article No.: 64AERPEH; the cell counter was purchased from CHEMOMETEC, model: NC-200; the microplate reader was purchased from PerkinElmer, model: Envison.
AGS, an endogenous human gastric adenocarcinoma cell line with KRAS^G12D mutation, was cultured in F12K+10% FBS medium. On the first day of the experiment, cells in logarithmic growth period were digested with trypsin (containing EDTA), collected and counted, and about 20,000 cells/well were inoculated in a 96-well cell culture plate and cultured overnight in an incubator with 5% CO2. 1000× compound stock solutions with gradient concentrations of 3.16 times were prepared with DMSO, and 200-fold diluted to 5× compound stock solutions with the above culture medium. The 5× compound stock solution was added to each cell culture well on the second day after cell inoculation, to give a final concentration of 1× and DMSO content of 0.1%. DMSO was used as experimental control. After adding the compound, the cells were continuously cultured for 3 hrs. Then, the culture medium in the well was removed, and 50 μl/well of cell lysis buffer (from Advanced ERK phospho-T202/Y204 kit, the same hereinafter) was added, and mixed uniformly. The cells were cultured for 30 min. Then 16 μl of the mixture was transferred to a white-bottom opaque 96-well plate, and 16 μl of the cell lysis buffer was added to an additional well and used as a blank. After that, 4 μl of p-ERK HTRF antibody mixed solution (from Advanced ERK Phos Pho-T202/Y204 Kit) was added to each well. After incubation for 4 hrs, the fluorescence value (RLU) of HTRF was read on a microplate reader. The inhibition rate of the compound on p-ERK level was calculated by the formula IR (%)=(RLU of control−RLU of compound)/(RLU of control−RLU of blank)×100%. The compound concentration and the corresponding inhibition rate on p-ERK level in the cells were fitted by using Prism 8 four-parameter method, and the IC50 value was calculated.

Assay [1] deals with AsPC-1 human pancreatic cancer cell with KRAS G12D mutation. In words: Cell proliferation inhibition experiment, 3D CellTiter-Glo, AsPC-1. Conditions: AsPC-1 cells, 3D spheroid, 5 days. In kind it is cell-based. The source says:
(§1) AsPC-1 was purchased from ATCC, Article No.: CRL-1682; AGS was purchased from ATCC, Article No.: CRL-1739; RPMI1640 was purchased from Gibco, Article No.: 11875-093 2235123; F12K was purchased from Gibco, Article No.: 21127-022; FBS was purchased from Gibco, Article No.: 10099-141C; the trypsin (containing EDTA) was purchased from Gibco, Article No.: 25200-072; CellTiter Glo-3D was purchased from Progema, Article No.: G9683; the 384-well spheroid plate was purchased from Corning, Article No.: 3830; the white-bottom opaque 384-well plate was purchased from Corning, Article No.: 3570; the cell counter was purchased from CHEMOMETEC, model: NC-200; the microplate reader was purchased from PerkinElmer, model: Envison;
(§2) AsPC-1, an endogenous human pancreatic cancer cell AsPC-1 with KRAS^G12D mutation, was cultured in RPMI-1640 medium containing 10% FBS. AGS, a human gastric cancer cell line with KRAS^G12D mutation, was cultured in F-12K medium containing 10% FBS. Cells in logarithmic growth period were digested with trypsin (containing EDTA), collected and counted. 800 AsPC-1 cells/well or 400 […] were inoculated in a 384-well spheroid plate, and cultured overnight in an incubator with 5% CO2 to establish a 3D cell model. 1000× compound stock solutions with gradient concentrations of 3.16 times were prepared with DMSO, and 100-fold diluted to 10× compound stock solutions with the culture medium. The 10× compound stock solution was added to each cell culture well on the second day after cell inoculation, to give a final concentration of 1× and DMSO content of 0.1%. DMSO was used as the control, and the culture medium was used as the blank. After the compound was added, the cells were cultured for 5 days. 30 μl CellTiter-Glo working solution was added to each well, and mixed uniformly. The cells were incubated for 30 min, and allowed to stand at room temperature for 30 min. 40 μl of the mixture was transferred to a white-bottom opaque 384-well plate, and the luminescence was read on a microplate reader. The inhibition rate on cell proliferation was calculated by a formula: IR (%)=(RLU of control−RLU of compound)/(RLU of control−RLU of blank)×100%. The gradient concentrations of the compound and the corresponding inhibition rates were fitted by using XLFit four-parameter method, and the IC50 value was calculated. […] The results of some exemplary compounds are shown in Table 2 below (—means not tested).
(In ATP-based viability assays light output follows the ATP content of the culture.)

In assay [2] the test system is AGS human gastric cancer cell line with KRAS G12D mutation. In words: Cell proliferation inhibition experiment, 3D CellTiter-Glo, AGS. It counts as cell-based. The conditions noted are these: AGS cells, 3D spheroid, 5 days.
Excerpt: as §1, §2

Regarding `C#Cc1cccc2cc(N)cc(-c3nc4c5c(nc(OCC67CC(F)(F)CN6CCC7=C)nc5c3F)N3C[C@H]5CC[C@H](N5)[C@H]3[C@H](C)O4)c12` (stereo partly drawn) [Z738], the concentration for half-maximal inhibition (IC50) in the assay with AGS p-ERK (Homo sapiens) stood at 0.0127 µM; in assay [1] (Homo sapiens, ASPC1, 120 h), 0.0299 µM; in assay [2] (Homo sapiens, 120 h), 0.0442 µM.
For `C[C@@H]1Oc2nc(-c3cc(N)cc4cccc(Cl)c34)c(F)c3nc(OC[C@]45CCCN4CC(F)(F)C5)nc(c23)N2C[C@H]3CC[C@H](N3)[C@@H]12` [Z737, 5-chloro-4-((5S,5aS,6S,9R)-12-(((R)-2,2-difluorotetrahydro-1H-pyrrolizin-7a(5H)-yl)methoxy)-1-fluoro-5-methyl-5a,6,7,8,9,10-hexahydro-5H-4-oxa-3,10a,11,13,14-pentaaza-6,9-methanonaphtho[1,8-ab]hepten-2-yl)naphthalen-2-amine], the IC50 was 0.0153 µM with AGS p-ERK, 0.0442 µM in assay [1] and 0.034 µM in assay [2].
Take `C#Cc1cccc2cc(N)cc(-c3nc4c5c(nc(OCC67CC(F)(F)CN6CC=C7C)nc5c3F)N3C[C@H]5CC[C@H](N5)[C@H]3[C@H](C)O4)c12` (stereo partly drawn) [Z748]: the IC50 with AGS p-ERK (Homo sapiens) is 0.00463 µM; in assay [1] (Homo sapiens, ASPC1, 120 h) it was 0.0129 µM; in assay [2] (Homo sapiens, 120 h) it was 0.0231 µM.
For `C=C1CCN2CCC[C@]12COc1nc2c3c(nc(-c4cc(N)cc(Cl)c4C(F)(F)F)c(F)c3n1)O[C@@H](C)[C@@H]1[C@@H]3CC[C@H](CN21)N3` [Z963, 3-chloro-5-((5S,5aS,6S,9R)-1-fluoro-5-methyl-12-(((R)-1-methylenetetrahydro-1H-pyrrolizin-7a(5H)-yl)methoxy)-5a,6,7,8,9,10-hexahydro-5H-4-oxa-3,10a,11,13,14-pentaaza-6,9-methanonaphtho[1,8-ab]heptadien-2-yl)-4-(trifluoromethyl) aniline], the IC50 with AGS p-ERK came to 0.00039 µM; in assay [1], 0.00169 µM; in assay [2] it was 0.00021 µM.
Consider `C#Cc1cccc2cc(N)cc(-c3nc4c5c(nc(OC[C@]67CCCN6CCC7=C(F)F)nc5c3F)N3C[C@H]5CC[C@H](N5)[C@H]3[C@H](C)O4)c12` [Z959, 4-((5S,5aS,6S,9R)-12-(((R)-1-(difluoromethylene)tetrahydro-1H-pyrrolizin-7a(5H)-yl)methoxy)-1-fluoro-5-methyl-5a,6,7,8,9,10-hexahydro-5H-4-oxa-3,10a,11,13,14-pentaaza-6,9-methanonaphtho[1,8-ab]hepten-2-yl)-5-ethynylnaphthalen-2-amine], for which the half-inhibitory concentration (IC50) is 0.00159 µM in the assay with AGS p-ERK (Homo sapiens); 0.00721 µM in assay [1] (Homo sapiens, ASPC1, 120 h); 0.00727 µM in assay [2] (Homo sapiens, 120 h).
Consider `C#Cc1cccc2cccc(-c3nc4c5c(nc(OC[C@@]67CCCN6CCC7=C)nc5c3F)N3C[C@H]5CC[C@H](N5)[C@H]3[C@H](C)O4)c12` (single isomer, unassigned) [Z702], for which the IC50 in the assay on AGS p-ERK amounted to 0.0111 µM; in assay [1] it was 0.0519 µM; in assay [2], 0.0268 µM.
For `C[C@@H]1Oc2nc(-c3cc(N)cc(Cl)c3C(F)(F)F)cc3nc(OC[C@@]45CCCN4CC(=C(F)F)C5)nc(c23)N2C[C@H]3CC[C@H](N3)[C@@H]12` [Z1085, 3-chloro-5-((5S,5aS,6S,9R)-12-(((S)-2-(difluoromethylene)tetrahydro-1H-pyrrolizin-7a(5H)-yl)methoxy)-5-methyl-5a,6,7,8,9,10-hexahydro-5H-4-oxa-3,10a,11,13,14-pentaaza-6,9-methanonaphtho[1,8-ab]hepten-2-yl)-4-(trifluoromethyl) aniline], the IC50 came out at 0.00078 µM in the assay on AGS p-ERK (Homo sapiens); 0.00304 µM in assay [1] (Homo sapiens, ASPC1, 120 h); 0.00088 µM in assay [2] (Homo sapiens, 120 h).
In the case of `C[C@@H]1Oc2nc(-c3cc(N)cc4ccc(F)c(F)c34)c(F)c3nc(OC[C@]45CCCN4CC(F)(F)C5)nc(c23)N2C[C@H]3CC[C@H](N3)[C@@H]12` [Z740, 4-((5S,5aS,6S,9R)-12-(((R)-2,2-difluorotetrahydro-1H-pyrrolizin-7a(5H)-yl)methoxy)-1-fluoro-5-methyl-5a,6,7,8,9,10-hexahydro-5H-4-oxa-3,10a,11,13,14-pentaaza-6,9-methanonaphtho[1,8-ab]heptan-2-yl)-5,6-difluoronaphthalen-2-amine], the IC50 in the assay on AGS p-ERK (Homo sapiens) was determined as 0.00608 µM; in assay [1] (Homo sapiens, ASPC1, 120 h) it was 0.026 µM; in assay [2] (Homo sapiens, 120 h), 0.018 µM.
Taken in the same sequence, the figures for `C#Cc1cccc2cc(N)c(F)c(-c3nc4c5c(nc(OCC6(CN7CCOCC7)CC6)nc5c3F)N3C[C@H]5CC[C@H](N5)[C@H]3[C@H](C)O4)c12` [Z957, 5-ethynyl-3-fluoro-4-((5S,5aS,6S,9R)-1-fluoro-5-methyl-12-((1-(morpholinemethyl)cyclopropyl)methoxy)-5a,6,7,8,9,10-hexahydro-5H-4-oxa-3,10a,11,13,14-pentaaza-6,9-methanonaphtho[1,8-ab]hepten-2-yl)naphthalen-2-amine] were 0.00097 µM, 0.00651 µM and 0.00761 µM.
For `C#Cc1c(F)ccc2cccc(-c3nc4c5c(nc(OC[C@]67C[C@@H](F)CN6CCC7=C)nc5c3F)N3C[C@H]5CC[C@H](N5)[C@H]3[C@H](C)O4)c12` [Z689, (5S,5aS,6S,9R)-2-(8-ethynyl-7-fluoronaphthalen-1-yl)-1-fluoro-12-(((6R,7aR)-6-fluoro-1-methylenetetrahydro-1H-pyrrolizin-7a(5H)-yl)methoxy)-5-methyl-5a,6,7,8,9,10-hexahydro-5H-4-oxa-3,10a,11,13,14-pentaaza-6,9-methanonaphtho[1,8-ab]heptene], the IC50 with AGS p-ERK came to 0.00661 µM; in assay [1], 0.0174 µM; in assay [2], 0.0193 µM.
The like results for `C#Cc1cccc2cccc(-c3nc4c5c(nc(OC[C@@]67CCCN6C[C@H](F)C7)nc5c3F)N3C[C@H]5CC[C@H](N5)[C@H]3C(CC)O4)c12` (stereo partly drawn) [Z387, (5S,5aS,6S,9R)-5-ethyl-2-(8-alkynylnaphthalen-1-yl)-1-fluoro-12-(((2R,7aS)-2-fluorotetrahydro-1H-pyrrolizin-7a(5H)-yl)methoxy)-5a,6,7,8,9,10-hexahydro-5H-4-oxy-3,10a,11,13,14-pentaaza-6,9-methanonaphtho[1,8-ab]heptene] were, in that order, 0.0502 µM, 0.202 µM and 0.0733 µM.
`C#Cc1c(F)ccc2cccc(-c3nc4c5c(nc(OC[C@]67CCCN6CCC7=C)nc5c3F)N3C[C@H]5CC[C@H](N5)[C@H]3[C@H](C)O4)c12` [Z639, (5S,5aS,6S,9R)-2-(8-ethynyl-7-fluoronaphthalen-1-yl)-1-fluoro-5-methyl-12-(((R)-1-methylenetetrahydro-1H-pyrrolizin-7a(5H)-yl)methoxy)-5a,6,7,8,9,10-hexahydro-5H-4-oxa-3,10a,11,13,14-pentaaza-6,9-methanonaphtho[1,8-ab]heptene]: the IC50 in the assay with AGS p-ERK turned out to be 0.0334 µM; in assay [1] it was 0.0937 µM; in assay [2], 0.113 µM.
